Experiment: Human HepG2 cell viability assay in 384 well format
Format: toxicity, cell-based
Parameters: dose 125 nL, time 70.5 hour; concentration not given beside the values
Settings: HepG2 cells, read-out: Inhibition

Structure (SMILES) | cytotoxicity at 70.5 h
CC(C)Oc1cccc(C(=O)C2CCCN(C(=O)c3ccnn3C)C2)c1 (stereo not drawn) | 19.8%
O=C(NCCCn1cccn1)C1CCC(=O)N(Cc2ccccc2F)C1 (stereo not drawn) | 4.27%
CC(C)n1c2ccccc2c2c1cc(C(=O)N(C)C)n2C(=O)N(C)C | -0.266%
CS(=O)(=O)N1C[C@H]2N(c3ncccn3)CCC[C@@]2(C(=O)NCC2CC2)C1 | -7.17%
O=C1CCCN1Cc1nnc2n1CCCN(C(=O)c1ccc[nH]1)C2 | 5.33%
COCCN(C)C(C(=O)O)c1ccc(F)c(Cl)c1 (stereo not drawn) | 30.8%
O=C(O)c1cc(-c2cncnc2)cc(S(=O)(=O)N2CCCCCC2)c1 | -10.5%
O=C(O)CCc1cn(C2CCN(c3ncccc3Cl)CC2)nn1 | 7.14%
Cc1cccc(C)c1OCC(C)Nc1nc(N)nc2c1CCNC2 (stereo not drawn) | -11.5%
CCCc1ccc(CN2CCC3(CCC(=O)N(CCCOC)C3)CC2)o1 | 20.6%
Cc1nc(CN2C[C@@H](CN3CCOCC3)[C@@H](CO)C2)c2ccccn12 | 16.5%
Nc1ccnc(N2CCCC(CCc3ccccc3)(C(=O)O)C2)n1 (stereo not drawn) | -3.28%
CS(=O)(=O)N1C[C@@H]2CC[C@H](C1)N(CCC(=O)NCc1ccccc1F)C2 | 21.2%
CCCC(Cn1cnc(-c2ccccc2)c1-c1cncn1CC)N(C)C (stereo not drawn) | -0.815%
CN(CCc1ccccn1)C(=O)C(c1cccnc1)N1CCOCC1 (stereo not drawn) | -1.97%
Cc1nc(C)c(C)c(N(C)CCCc2nccn2C)n1 | -8.93%
CO[C@@H]1c2ccccc2C2(CCN(C(=O)CNC(=O)C(C)C)CC2)[C@H]1O | -6.67%
O=C(Cc1ccsc1)N1CCCC(CNS(=O)(=O)Cc2ccccc2)C1 (stereo not drawn) | -9.34%
CCCSc1ncc(-c2nccn2CCC(N)=O)cn1 | -13.6%
COc1ccc(-n2cc(CCO)cn2)cc1C(N)=O | -14.7%
O=C(c1ccc2nccnc2c1)N1CCN(CCO)[C@@H]2CS(=O)(=O)C[C@@H]21 | -9.05%
CN(Cc1ccsc1)c1nc(-c2ccccn2)nc2c1CCNCC2 | -9.47%

Structure (SMILES) | cytotoxicity at 70.5 h
O=C(CCc1cc2n(n1)CCCN(CCc1ccccc1)C2)NC1CC1 | -11%
CC(=O)N[C@@H]1CN(C(=O)c2ccncc2)C[C@H]1c1ccc(C)cc1 | -3.8%
O=C1CCCCN1CCc1nc(C2(c3ccc(F)cc3)CCOC2)no1 (stereo not drawn) | 12.7%
O=C(CCC1CCCN(S(=O)(=O)C2CC2)C1)Nc1ccc(Cl)cc1 (stereo not drawn) | 34.5%
CC(C)=CCN1CC2(CCN(C(=O)CCn3ccnc3C)CC2)CC1=O | 0.368%
CCN(CC)C(=O)[C@@H]1C[C@@H](NC(=O)c2cccc(N(C)C)c2)CN1C | 26.1%
COc1ccccc1OC1CCN(c2nc(N)nc3[nH]cnc23)CC1 | 2.92%
CC[C@H](CO)NC(=O)c1coc(COc2ccccc2F)n1 | 2.14%
CCOc1ccc(C(=O)N2C[C@H]3CC[C@@H]2CN(C)C3)cc1OCC | -14.6%
Cc1cc(C)c2c(N3CCC(C(=O)N4CCOCC4)CC3)ncnc2n1 | 20.2%
CC1(C)OC(=O)N(CCCOc2ccc(F)cc2)C1=O | -11.6%
CCC1CN(C(=O)c2ncccc2O)CCC(=O)N1Cc1ccccc1 (stereo not drawn) | -0.966%
Cc1nc2sccn2c1C(=O)N1CCc2c(nc(N(C)C)[nH]c2=O)C1 | 1.53%
COc1ccc(Cc2ncc3c(n2)CN(C(=O)C(C)(C)C)C3)cc1 | -1.36%
CCN1CC(C(=O)NCc2ccc3c(c2)nc(C)n3C)CCC1=O (stereo not drawn) | -13.6%
CCc1c(C)nn(CC(=O)NC(C(=O)O)c2c(C)n[nH]c2C)c1C (stereo not drawn) | -7.94%
CC(C)(CN1CCOCC1)CN1CCC(Cc2cccc(CO)c2)C1 (stereo not drawn) | 17.8%
COc1nc2c(cc1C(=O)NC(C)Cc1cnccn1)CCC2 (stereo not drawn) | -7.71%
O=C(NCCNc1cccnc1)C(c1cccnc1)N1CCCC1 (stereo not drawn) | -9.35%
COCCN(Cc1ccccc1Cl)c1nc(CCN)nc2ccccc12 | -6.84%
Cc1cc(C)cc(CCC(=O)NC(C)c2nnn[nH]2)c1 (stereo not drawn) | -2.97%
Cc1cn(CC(=O)N(C)Cc2cccc3ncccc23)c(=O)[nH]c1=O | 6.82%

Structure (SMILES) | cytotoxicity at 70.5 h
CCc1noc(CN(CCc2ccccc2)C2CCN(C)CC2)n1 | 25.9%
COCc1nc(NCC2CCS(=O)(=O)C2)c2cnn(C)c2n1 (stereo not drawn) | -7.96%
CN(CCO)Cc1cc(Cl)ccc1OCC(O)CN1CCCCCC1 (stereo not drawn) | -14.1%
COc1cccc(-c2cc(C(=O)NCCCC(F)(F)F)[nH]n2)c1 | 30.9%
O=C(CN1CCOC(c2ccc(Cl)c(Cl)c2)C1)NCc1ccco1 (stereo not drawn) | 3.47%
CCC(O)Cn1nc(CCSC)nc1-c1ccc2c(c1)OCCO2 (stereo not drawn) | 15.5%
O=C(c1cnc(-c2cccnc2)nc1)N1CCC(c2ccncc2)CC1 | -5.85%
CCc1ncc(-c2nccn2-c2cccc(CC(=O)O)c2)cn1 | -11.5%
COc1ccc2nc(CNC(=O)c3cc(C(C)C)no3)[nH]c2c1 | 39.1%
O=C1N(Cc2ccc(F)c(F)c2)CCCC12CCN(C1CCCCC1)C2 (stereo not drawn) | 1.47%
CCn1c(CC2CCN(C(=O)c3cc(C(C)C)nn3C)CC2)n[nH]c1=O | 2.37%
NC(=O)c1cc2c(nc1CC1CCCCO1)CCC2 (stereo not drawn) | -2.08%
O=C(NCc1nncn1C1CCCCC1)C1CNCCO1 (stereo not drawn) | -6.16%
CCc1cn[nH]c1C1CCCN(C(=O)c2cnc(NC(C)C)nc2)C1 (stereo not drawn) | -5.16%
COCC(C)NCc1ccc2[nH]c(C)c(C)c2c1 (stereo not drawn) | -7.86%
Cc1nc(-c2cccnc2)ncc1C(=O)N1CCCC(N(C)C)CC1 (stereo not drawn) | -20%
CCC[C@H]1CN(S(=O)(=O)c2c(C)noc2C)C[C@@H]1N | -3.53%
CC(C)Cc1cn(C2CCN(C(C)CCn3cccn3)CC2)nn1 (stereo not drawn) | -11.6%
CO[C@H]1C[C@@H](O)C12CCN(C(=O)NCc1ccco1)CC2 | 17.8%
O=C1CCC2(CCCN(C(=O)C3CCCC3)C2)CN1CCc1c[nH]cn1 (stereo not drawn) | -2.97%
O=C(NCc1csc2ccc(Cl)cc12)c1cc2n(n1)CCNC2 | 3.64%
O=C(CN1CCCCC1)NCc1cccnc1-n1cnc2ccccc21 | -4.51%

Structure (SMILES) | cytotoxicity at 70.5 h
CCC(Nc1cccc(OC)c1)C(=O)N(CCO)Cc1nccs1 (stereo not drawn) | -3.06%
NC(=O)c1cc2c(nc1-c1ccc3c(c1)OCCO3)CCC2 | -9.8%
Cc1ccc(OCc2occc2C(=O)N2CCCCC(N)C2)cc1 (stereo not drawn) | -2.2%
CN(C)C(=O)CN1C[C@@H]2CC[C@H](C1)N(Cc1ccccc1C#N)C2 | -11%
CC(C)Cc1cc(CN2C[C@H]3CC[C@@H]2CN(Cc2cscn2)C3)n[nH]1 | 12.5%
CC(C)CC(C)NC1CCN(c2ccc(-c3cscn3)cc2)CC1 (stereo not drawn) | -15.5%
COc1cccc(-n2cc(-c3ccnc(NC(CO)C(C)C)n3)cn2)c1 (stereo not drawn) | 13.2%
CCn1cc(CN2CCC3(CC2)c2ccccc2CC3O)cn1 (stereo not drawn) | -8.46%
CCCc1cc(C(=O)NC(COC)c2ccnn2C)no1 (stereo not drawn) | 14.9%
CN(C)CC1(O)CCN(C(=O)c2cnc(-c3cccnc3)nc2)C1 (stereo not drawn) | 3.5%
O=C(Cn1cccn1)N1CCc2[nH]nc(-c3ccc4c(c3)OCO4)c2C1 | -7.87%
O=C(O)[C@@H]1CN(CC(=O)N2CCCCCC2)C[C@H]1c1ccc(F)cc1 | -5.12%
Cc1ncc(CO)c(CN2CCCC2c2nc3c(C)cccc3[nH]2)c1O (stereo not drawn) | -0.268%
Cc1cc(C)cc(CN2CCN(Cc3ccc4nonc4c3)CC2=O)c1 | -0.612%
O=C(c1ccc(-c2cccc3c2CCNC3)o1)N1CCCCC1 | -3.94%
O=C(Cc1ccccc1)C1CCCN(Cc2cncn2C2CCCC2)C1 (stereo not drawn) | -7.77%
Cc1ccc(NC2(C(=O)N3CCn4cncc4C3)CCCCC2)cc1C | -12.1%
Cc1ncsc1CCN(C)C(=O)CN1CC2(CCNCC2)OC1=O | 17.2%
COc1cccc2c1OCC(C(=O)NCCn1nc(C)c(Cl)c1C)C2 (stereo not drawn) | -5.88%
COc1ccc(N2CCN(C(=O)CCc3n[nH]c(C)n3)CC2=O)cc1 | 15.6%
CCc1cnc(C)nc1NCCNc1nc(C)cc(=O)[nH]1 | 0.367%
COc1ccccc1Oc1ncccc1CNC(=O)[C@H](N)CC(C)(C)C | -5.62%

Structure (SMILES) | cytotoxicity at 70.5 h
C[C@@H]1CCC[C@H](C)N1CC(=O)N1CCc2[nH]c(-c3ccccc3)nc2C1 | 27%
CCc1nccc(CN2CCC(CNC(=O)[C@H]3CC[C@H](C)CC3)C2)n1 (stereo partly drawn) | 27.6%
CO[C@@]1(C)C[C@@H](O)C12CCN(C(=O)CCn1c(C)cccc1=O)CC2 | -4.42%
Cn1ccnc1-c1cn(CCCc2csc(N)n2)nn1 | -15.7%
CCc1cc(N2CCN3CCCCC3C2)n2nccc2n1 (stereo not drawn) | -8.87%
CN1[C@H]2CC[C@@H]1CN(C(=O)c1ccc(-c3ccccc3)[nH]1)CC2 | -2.64%
Cc1cnccc1CN1CCN(C)C2(CCC(=O)N(CC3CC3)CC2)C1 (stereo not drawn) | -1.45%
COCCN(C)C[C@@H]1CN(C(=O)c2cccc(Cl)c2)C[C@@H]1CO | -13.7%
Cc1cccc2nc(-c3nc4c([nH]3)CCCNC4=O)cn12 | 16%
O=C(c1ccc(Cl)cc1)N1CCC2(CC1)C(=O)Nc1ccccc12 | 14.3%
O=C(N1CCCC1)N1CCC(Nc2ccncn2)CC1 | -3.32%
COc1ccc(/C=C/CN2CCC3(CC2)CN(C)C(=O)O3)cc1 | -6.12%
COc1ccc2c(C)nc(N3C[C@@H](C)O[C@@H](C)C3)nc2c1 | -16.1%
CC(=O)NCCNc1nc(-c2ccccn2)nc2c1c(C)nn2C | 1.86%
CN1CCC2(CCCN(S(=O)(=O)c3ccc(-c4cnco4)s3)C2)C1 (stereo not drawn) | -6.76%
CCn1cc(CN2C[C@H]3CC[C@@H]2CN(C(=O)C2CCC2)C3)cn1 | -6.91%
Cc1noc(C)c1CN1CCc2ncnc(-c3ccccc3)c2CC1 | 18.5%
CN(C)CCN1C[C@@H]2CN(S(=O)(=O)c3ccccc3)C[C@@H]2C1=O | -0.863%
Cc1noc(C)c1CN1CCC2(CC1)C(c1cnn(C)c1)CC(=O)N2C (stereo not drawn) | -7.83%
O=C(C1CCC2(CCN(Cc3cccnc3)CC2)CO1)N1CCCC1 (stereo not drawn) | -7.42%
